Data on 32 compounds can be found in patent US20090325964A1, “Piperazine Metabotropic Glutamate Receptor 5 (MGLUR5) Negative Allosteric Modulators For Anxiety/Depression” (Wyeth, priority 2008, published 2009).

One test deals with T1, rat mGluR5 receptor (Rattus norvegicus, UniProt P31424).
T1 construct: expressed in transfected cells; host or cells: HEK-293
The experiment in a line: [3H]-MPEP displacement binding assay, HEK-293 cell membranes expressing rat mGluR5. As to conditions: [3H]-MPEP displacement, rat mGluR5; read-out: Median Ki. Put shortly: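 Membranes from HEK-293 cells expressing rat mGluR5 (12-25 μg protein), incubated 60 min at room temperature with 4 nM [3H]-MPEP in 50 mM Tris pH 7.5, then filtered. Nonspecific binding defined with 10 μM MPEP.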

The target in a further test is mGluR5 (Rattus norvegicus, UniProt P31424). Description: IC50 column under 'Biological Activity' (assay not identified in the shown text; not the binding Ki).
Sequence of mGluR5 (P31424 21-1203): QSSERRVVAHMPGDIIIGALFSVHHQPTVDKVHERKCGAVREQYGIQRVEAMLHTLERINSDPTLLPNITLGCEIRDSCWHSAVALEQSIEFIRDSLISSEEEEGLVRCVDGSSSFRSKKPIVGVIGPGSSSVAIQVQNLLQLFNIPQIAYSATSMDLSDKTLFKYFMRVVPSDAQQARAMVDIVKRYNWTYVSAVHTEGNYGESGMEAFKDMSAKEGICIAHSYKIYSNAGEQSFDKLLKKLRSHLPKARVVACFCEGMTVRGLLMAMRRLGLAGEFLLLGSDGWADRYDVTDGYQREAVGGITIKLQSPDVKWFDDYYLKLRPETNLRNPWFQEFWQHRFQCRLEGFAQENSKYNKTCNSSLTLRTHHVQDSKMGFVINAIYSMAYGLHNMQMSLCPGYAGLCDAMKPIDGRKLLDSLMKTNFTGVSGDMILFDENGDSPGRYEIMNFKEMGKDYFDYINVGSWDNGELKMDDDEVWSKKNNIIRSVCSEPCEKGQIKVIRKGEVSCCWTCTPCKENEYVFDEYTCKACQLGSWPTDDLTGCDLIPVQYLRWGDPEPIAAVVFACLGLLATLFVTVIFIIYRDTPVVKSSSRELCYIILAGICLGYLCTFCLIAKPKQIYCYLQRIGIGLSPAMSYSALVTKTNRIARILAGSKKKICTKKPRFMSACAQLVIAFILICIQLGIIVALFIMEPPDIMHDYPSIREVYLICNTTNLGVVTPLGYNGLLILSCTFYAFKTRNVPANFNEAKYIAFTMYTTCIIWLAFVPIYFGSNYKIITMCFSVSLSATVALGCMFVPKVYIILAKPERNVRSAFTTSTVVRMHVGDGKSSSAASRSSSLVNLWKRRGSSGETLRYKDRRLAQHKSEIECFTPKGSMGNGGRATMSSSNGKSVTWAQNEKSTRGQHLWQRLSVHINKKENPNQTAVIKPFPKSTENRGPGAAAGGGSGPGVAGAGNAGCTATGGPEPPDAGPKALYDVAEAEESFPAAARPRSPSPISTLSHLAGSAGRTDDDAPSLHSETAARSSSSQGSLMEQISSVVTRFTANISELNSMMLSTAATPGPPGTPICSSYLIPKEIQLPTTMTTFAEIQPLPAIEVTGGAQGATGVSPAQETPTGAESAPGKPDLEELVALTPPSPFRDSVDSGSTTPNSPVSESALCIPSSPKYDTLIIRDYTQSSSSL

T1 sequence (P31424 21-1203): as above

The Ki is the equilibrium dissociation constant of an inhibitor or competing ligand from its target. What is called IC50 is the point on the concentration scale where inhibition reaches its midpoint. Read a high IC50 as a need for much substance. As to `COc1ccc(C(=O)N2CCN(c3ccc(Cl)cn3)CC2)cc1C#Cc1ccccn1` [Compound 188, 1-(5-chloropyridin-2-yl)-4-[4-methoxy-3-(pyridin-2-ylethynyl)benzoyl]piperazine], the Ki on rat mGluR5 receptor stood at 7 nM. Moreover, the IC50 on mGluR5 was found to be 86 nM.

Consider `COc1ccc(C(=O)N2CCN(c3cccc(Cl)c3)CC2)cc1C#Cc1ccccn1` [Compound 189, 1-(3-chlorophenyl)-4-[4-methoxy-3-(pyridin-2-ylethynyl)benzoyl]piperazine], for which, at rat mGluR5 receptor, the inhibition constant Ki was found to be 4 nM. This compound also showed an IC50 at mGluR5 of 148 nM.

For the compound `COc1ccc(C(=O)N2CCN(c3ncc(C(F)(F)F)cc3Cl)CC2)cc1C#Cc1ccccn1` [Compound 190, 1-[3-chloro-5-(trifluoromethyl)pyridin-2-yl]-4-[4-methoxy-3-(pyridin-2-ylethynyl)benzoyl]piperazine], the Ki on rat mGluR5 receptor stood at 413 nM. This compound also came in with an IC50 on mGluR5 of 408 nM.

As to `COc1ccc(C(=O)N2CCN(c3cc(C)ccn3)CC2)cc1C#Cc1ccccn1` [Compound 191, 1-[4-methoxy-3-(pyridin-2-ylethynyl)benzoyl]-4-(4-methylpyridin-2-yl)piperazine], the Ki at rat mGluR5 receptor stood at 19 nM. This compound displayed an IC50 on mGluR5 of 31 nM.

On to `COc1ccc(C(=O)N2CCN(c3nc(C)cc(C)n3)CC2)cc1C#Cc1ccccn1` [Compound 192, 2-{4-[4-methoxy-3-(pyridin-2-ylethynyl)benzoyl]piperazin-1-yl}-4,6-dimethylpyrimidine], for which, on rat mGluR5 receptor, the Ki was 45 nM. In addition, on mGluR5, the IC50 came to 109 nM.

With `COc1ccc(C(=O)N2CCN(c3nccnc3C#N)CC2)cc1C#Cc1ccccn1` [Compound 193, 3-{4-[4-methoxy-3-(pyridin-2-ylethynyl)benzoyl]piperazin-1-yl}pyrazine-2-carbonitrile], the Ki at rat mGluR5 receptor is 34 nM. This compound also showed an IC50 on mGluR5 of 46 nM.

With `COc1ccc(C(=O)N2CCN(c3nccc(C(F)(F)F)n3)CC2)cc1C#Cc1ccccn1` [Compound 194, 2-{4-[4-methoxy-3-(pyridin-2-ylethynyl)benzoyl]piperazin-1-yl}-4-(trifluoromethyl)pyrimidine], the Ki on rat mGluR5 receptor was determined as 4 nM. In addition, the half-maximal inhibitory concentration (IC50) at mGluR5 was determined as 78 nM.

For the compound `COc1ccc(C(=O)N2CCN(c3cccc(O)c3)CC2)cc1C#Cc1ccccn1` [Compound 195, 3-{4-[4-methoxy-3-(pyridin-2-ylethynyl)benzoyl]piperazin-1-yl}phenol], the Ki on rat mGluR5 receptor stood at 26 nM. This compound yielded an IC50 on mGluR5 of 702 nM.

Take `COc1ccc(C(=O)N2CCN(c3cccc(C)c3)CC2)cc1C#Cc1ccccn1` [Compound 196, 1-[4-methoxy-3-(pyridin-2-ylethynyl)benzoyl]-4-(3-methylphenyl)piperazine]: at rat mGluR5 receptor, the Ki was determined as 16 nM. At mGluR5, this compound returned an IC50 of 65 nM.

Turning to `COc1ccc(C(=O)N2CCN(c3ncc(Br)c(OC)n3)CC2)cc1C#Cc1ccccn1` [Compound 197, 5-bromo-4-methoxy-2-{4-[4-methoxy-3-(pyridin-2-ylethynyl)benzoyl]piperazin-1-yl}pyrimidine], the Ki at rat mGluR5 receptor was determined as 12 nM. Moreover, the IC50 on mGluR5 turned out to be 56 nM.

Take `COc1ccc(C(=O)N2C[C@H]3C[C@H]2CN3c2ccc(Cl)cc2)cc1C#Cc1ccccn1` [Compound 199, (1R,4S)-2-(4-chlorophenyl)-5-[4-methoxy-3-(pyridin-2-ylethynyl)benzoyl]-2,5-diazabicyclo[2.2.1]heptane]: on rat mGluR5 receptor, the Ki stood at 76 nM. Moreover, the IC50 at mGluR5 was > 1000 nM.

For the compound `COc1ccnc(N2CCN(C(=O)c3ccc(OC)c(C#Cc4ccccn4)c3)CC2)n1` [Compound 200, 4-methoxy-2-{4-[4-methoxy-3-(pyridin-2-ylethynyl)benzoyl]piperazin-1-yl}pyrimidine], the Ki at rat mGluR5 receptor was 21 nM. On mGluR5, the IC50 came to 24 nM.

Consider `COc1ccc(C(=O)N2CCN(c3nsc4ccccc34)CC2)cc1C#Cc1ccccn1` [Compound 201, 3-{4-[4-methoxy-3-(pyridin-2-ylethynyl)benzoyl]piperazin-1-yl}-1,2-benzisothiazole], for which the Ki on rat mGluR5 receptor came to 3 nM. Besides, at mGluR5, the IC50 is 24 nM.

Regarding `COc1ccc(C(=O)N2CCN(c3cncc(C)n3)CC2)cc1C#Cc1ccccn1` [Compound 204, 2-{4-[4-methoxy-3-(pyridin-2-ylethynyl)benzoyl]piperazin-1-yl}-6-methylpyrazine], on rat mGluR5 receptor, the Ki was 29 nM. The same compound gave an IC50 at mGluR5 of 132 nM.

As for `COc1ccc(C(=O)N2CCCN(c3ccccn3)CC2)cc1C#Cc1ccccn1` [Compound 205, 1-[4-methoxy-3-(pyridin-2-ylethynyl)benzoyl]-4-pyridin-2-yl-1,4-diazepane], the Ki on rat mGluR5 receptor came to 131 nM. Further, the IC50 on mGluR5 is > 1000 nM.

Consider `COc1ccc(C(=O)N2CCN(c3nnc(C(F)(F)F)s3)CC2)cc1C#Cc1ccccn1` [Compound 206, 1-[4-methoxy-3-(pyridin-2-ylethynyl)benzoyl]-4-[5-(trifluoromethyl)-1,3,4-thiadiazol-2-yl]piperazine], for which the Ki on rat mGluR5 receptor was 66 nM. This compound also returned an IC50 on mGluR5 of 295 nM.

In the case of `COc1ccc(C(=O)N2C[C@H]3C[C@H]2CN3c2cccc(F)c2)cc1C#Cc1ccccn1` [Compound 207, (1R,4S)-2-(3-fluorophenyl)-5-[4-methoxy-3-(pyridin-2-ylethynyl)benzoyl]-2,5-diazabicyclo[2.2.1]heptane], on rat mGluR5 receptor, the Ki was found to be 19 nM. The compound further displayed a concentration for half-maximal inhibition (IC50) at mGluR5 of 306 nM.

Regarding `COc1ccc(C(=O)N2CCN(c3ncccc3C)CC2)cc1C#Cc1ccccn1` [Compound 208, 1-[4-methoxy-3-(pyridin-2-ylethynyl)benzoyl]-4-(3-methylpyridin-2-yl)piperazine], on rat mGluR5 receptor, the inhibitory constant (Ki) was 21 nM. For the same compound, the IC50 on mGluR5 was found to be 141 nM.

Turning to `COc1cccc(N2CCN(C(=O)c3ccc(OC)c(C#Cc4ccccn4)c3)CC2)n1` [Compound 213, 1-(6-methoxypyridin-2-yl)-4-[4-methoxy-3-(pyridin-2-ylethynyl)benzoyl]piperazine], the Ki on rat mGluR5 receptor was 11 nM. At mGluR5, this compound came in with an IC50 of 86 nM.

Turning to `COc1ccc(C(=O)N2CCN(c3ccccc3Cl)CC2)cc1C#Cc1ccccn1` [Compound 216, 1-(2-chlorophenyl)-4-[4-methoxy-3-(pyridin-2-ylethynyl)benzoyl]piperazine], the Ki at rat mGluR5 receptor is 107 nM. For the same compound, the IC50 at mGluR5 was > 1000 nM.

Take `COc1ccc(C(=O)N2CCN(c3ccc(Cl)cc3)CC2)cc1C#Cc1ccccn1` [Compound 217, 1-(4-chlorophenyl)-4-[4-methoxy-3-(pyridin-2-ylethynyl)benzoyl]piperazine]: the Ki on rat mGluR5 receptor stood at 27 nM. Besides, the IC50 on mGluR5 was 336 nM.

Turning to `COc1ccc(C(=O)N2CCN(c3ccc(Cl)c(Cl)c3)CC2)cc1C#Cc1ccccn1` [Compound 218, 1-(3,4-dichlorophenyl)-4-[4-methoxy-3-(pyridin-2-ylethynyl)benzoyl]piperazine], the Ki on rat mGluR5 receptor was found to be 48 nM. Moreover, on mGluR5, the 50% inhibitory concentration (IC50) is > 1000 nM.

With `COc1ccc(C(=O)N2CCN(c3cccc(C)c3C)CC2)cc1C#Cc1ccccn1` [Compound 219, 1-(2,3-dimethylphenyl)-4-[4-methoxy-3-(pyridin-2-ylethynyl)benzoyl]piperazine], on rat mGluR5 receptor, the Ki turned out to be 168 nM. For the same compound, at mGluR5, the IC50 is > 1000 nM.

For the compound `COc1ccc(C(=O)N2CCN(c3cc(C)nc(C(C)C)n3)CC2)cc1C#Cc1ccccn1` [Compound 220, 2-isopropyl-4-{4-[4-methoxy-3-(pyridin-2-ylethynyl)benzoyl]piperazin-1-yl}-6-methylpyrimidine], the Ki on rat mGluR5 receptor turned out to be 89 nM. Moreover, the IC50 at mGluR5 is > 1000 nM.

On to `COc1ccc(C(=O)N2CCN(c3ccccc3C)CC2)cc1C#Cc1ccccn1` [Compound 221, 1-[4-methoxy-3-(pyridin-2-ylethynyl)benzoyl]-4-(2-methylphenyl)piperazine], for which, on rat mGluR5 receptor, the Ki amounted to 100 nM. In addition, the IC50 at mGluR5 is > 1000 nM.

As to `COc1ccc(C(=O)N2CCN(c3ccc(C)cc3)CC2)cc1C#Cc1ccccn1` [Compound 222, 1-[4-methoxy-3-(pyridin-2-ylethynyl)benzoyl]-4-(4-methylphenyl)piperazine], the Ki at rat mGluR5 receptor was 74 nM. The IC50 at mGluR5 is > 1000 nM.

Consider `COc1ccc(C(=O)N2CCN(c3cccc(F)c3)CC2)cc1C#Cc1ccccn1` [Compound 223, 1-(3-fluorophenyl)-4-[4-methoxy-3-(pyridin-2-ylethynyl)benzoyl]piperazine], for which the Ki on rat mGluR5 receptor is 10 nM. On mGluR5, this compound displayed a 50% inhibitory concentration (IC50) of 103 nM.

For the compound `COc1ccc(C(=O)N2CCN(S(=O)(=O)c3ccc(Cl)s3)CC2)cc1C#Cc1ccccn1` [Compound 225, 1-[(5-chloro-2-thienyl)sulfonyl]-4-[4-methoxy-3-(pyridin-2-ylethynyl)benzoyl]piperazine], the Ki at rat mGluR5 receptor worked out at 51 nM. Besides, the IC50 on mGluR5 was > 1000 nM.

For the compound `COc1ccc(C(=O)N2C[C@@H]3C[C@@H]2CN3c2ccc(C)cc2)cc1C#Cc1ccccn1` [Compound 226, (1R,4S)-2-[4-methoxy-3-(pyridin-2-ylethynyl)benzoyl]-5-(4-methylphenyl)-2,5-diazabicyclo[2.2.1]heptane], the Ki on rat mGluR5 receptor was determined as 277 nM. The IC50 on mGluR5 was > 1000 nM.

As to `COc1ccc(C(=O)N2C[C@@H]3C[C@@H]2CN3c2ccc(F)cc2)cc1C#Cc1ccccn1` [Compound 227, (1S,4R)-2-(4-fluorophenyl)-5-[4-methoxy-3-(pyridin-2-ylethynyl)benzoyl]-2,5-diazabicyclo[2.2.1]heptane], the inhibition constant Ki on rat mGluR5 receptor was found to be 71 nM. At mGluR5, the IC50 is > 1000 nM.

Turning to `COc1ccc(C(=O)N2CCN(c3ccc([N+](=O)[O-])cn3)CC2)cc1C#Cc1ccccn1` [Compound 229, 1-[4-methoxy-3-(pyridin-2-ylethynyl)benzoyl]-4-(5-nitropyridin-2-yl)piperazine], the Ki on rat mGluR5 receptor worked out at 56 nM. In addition, the half-inhibitory concentration (IC50) at mGluR5 was > 1000 nM.

Take `COc1ccc(C(=O)N2CCN(c3ccc(F)cc3)CC2)cc1C#Cc1ccccn1` [Compound 231, 1-(4-fluorophenyl)-4-[4-methoxy-3-(pyridin-2-ylethynyl)benzoyl]piperazine]: on rat mGluR5 receptor, the Ki worked out at 23 nM. For the same compound, the IC50 on mGluR5 was 244 nM.
